Among the data in ChEMBL document CHEMBL3991601, “The target landscape of clinical kinase drugs” (Science, 2017) are Kd values, retold here.

For assay [1], the target named is T1, Acyl-CoA dehydrogenase family member 10 (Homo sapiens, UniProt Q6JQN1).
T1 sequence (Q6JQN1 whole entry): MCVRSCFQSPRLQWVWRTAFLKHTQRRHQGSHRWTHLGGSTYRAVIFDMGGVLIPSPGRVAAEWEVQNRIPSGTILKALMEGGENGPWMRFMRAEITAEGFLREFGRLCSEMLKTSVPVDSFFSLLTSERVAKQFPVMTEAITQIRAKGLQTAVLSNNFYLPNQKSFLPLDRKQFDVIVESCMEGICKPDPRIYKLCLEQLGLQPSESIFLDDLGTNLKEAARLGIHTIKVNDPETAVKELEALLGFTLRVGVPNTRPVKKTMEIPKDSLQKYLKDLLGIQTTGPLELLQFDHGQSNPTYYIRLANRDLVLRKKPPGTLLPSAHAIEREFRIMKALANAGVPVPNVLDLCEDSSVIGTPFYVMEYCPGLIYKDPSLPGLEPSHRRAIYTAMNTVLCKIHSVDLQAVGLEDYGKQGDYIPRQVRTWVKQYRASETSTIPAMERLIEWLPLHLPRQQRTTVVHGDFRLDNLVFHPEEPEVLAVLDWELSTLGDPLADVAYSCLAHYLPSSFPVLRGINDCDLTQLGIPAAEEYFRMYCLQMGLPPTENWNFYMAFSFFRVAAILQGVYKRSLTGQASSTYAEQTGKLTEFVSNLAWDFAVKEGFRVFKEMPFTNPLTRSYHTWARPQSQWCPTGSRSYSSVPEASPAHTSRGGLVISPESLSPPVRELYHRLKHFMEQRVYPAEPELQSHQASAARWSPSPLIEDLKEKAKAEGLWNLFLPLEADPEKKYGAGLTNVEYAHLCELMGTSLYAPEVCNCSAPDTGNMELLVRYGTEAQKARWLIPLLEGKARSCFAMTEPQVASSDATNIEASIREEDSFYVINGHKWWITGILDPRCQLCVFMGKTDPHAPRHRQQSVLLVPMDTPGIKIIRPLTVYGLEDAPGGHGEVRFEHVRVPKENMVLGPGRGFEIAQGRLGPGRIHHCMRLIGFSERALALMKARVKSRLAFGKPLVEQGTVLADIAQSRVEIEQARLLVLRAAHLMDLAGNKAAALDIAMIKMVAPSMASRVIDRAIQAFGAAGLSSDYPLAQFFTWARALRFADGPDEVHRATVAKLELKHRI

Another assay deals with T2, Heme oxygenase 2 (Homo sapiens, UniProt P30519).
T2 sequence (P30519 whole entry): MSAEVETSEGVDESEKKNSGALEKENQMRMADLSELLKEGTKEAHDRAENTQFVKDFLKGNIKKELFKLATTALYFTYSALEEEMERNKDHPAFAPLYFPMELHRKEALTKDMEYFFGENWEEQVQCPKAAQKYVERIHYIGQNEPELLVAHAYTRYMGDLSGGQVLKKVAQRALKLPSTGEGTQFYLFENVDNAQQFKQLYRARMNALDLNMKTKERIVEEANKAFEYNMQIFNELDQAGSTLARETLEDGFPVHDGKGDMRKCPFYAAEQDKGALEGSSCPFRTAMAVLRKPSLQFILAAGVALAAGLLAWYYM

Assay [2] concerns the target Inosine-5'-monophosphate dehydrogenase 2 (Homo sapiens, UniProt P12268).
The target in assay [3] is T3, Dual specificity mitogen-activated protein kinase kinase 6 (Homo sapiens, UniProt P52564).
T3 sequence (P52564 whole entry): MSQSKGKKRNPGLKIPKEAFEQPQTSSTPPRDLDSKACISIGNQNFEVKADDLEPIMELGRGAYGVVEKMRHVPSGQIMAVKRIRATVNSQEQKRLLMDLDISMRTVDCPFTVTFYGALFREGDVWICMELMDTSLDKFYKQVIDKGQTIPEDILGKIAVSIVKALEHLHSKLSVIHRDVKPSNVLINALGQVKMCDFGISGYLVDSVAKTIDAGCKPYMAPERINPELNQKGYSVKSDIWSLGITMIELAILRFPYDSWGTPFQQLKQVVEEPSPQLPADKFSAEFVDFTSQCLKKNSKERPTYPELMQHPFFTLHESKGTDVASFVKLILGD

For assay [4], the target named is Mitogen-activated protein kinase 10 (Homo sapiens, UniProt P53779).
Assay [5] deals with Macrophage-stimulating protein receptor (Homo sapiens, UniProt Q04912).
Assay [6] addresses Serine/threonine-protein kinase N1 (Homo sapiens, UniProt Q16512).
Assay [7] has as its target Protein kinase C delta type (Homo sapiens, UniProt Q05655).

Each structure is given as a SMILES string. Activity calls are given as the source filed them.
Note: in the data inactive means no Kd found up to 30 µM.

Mitogen-activated protein kinase 10, sequence (P53779 whole entry): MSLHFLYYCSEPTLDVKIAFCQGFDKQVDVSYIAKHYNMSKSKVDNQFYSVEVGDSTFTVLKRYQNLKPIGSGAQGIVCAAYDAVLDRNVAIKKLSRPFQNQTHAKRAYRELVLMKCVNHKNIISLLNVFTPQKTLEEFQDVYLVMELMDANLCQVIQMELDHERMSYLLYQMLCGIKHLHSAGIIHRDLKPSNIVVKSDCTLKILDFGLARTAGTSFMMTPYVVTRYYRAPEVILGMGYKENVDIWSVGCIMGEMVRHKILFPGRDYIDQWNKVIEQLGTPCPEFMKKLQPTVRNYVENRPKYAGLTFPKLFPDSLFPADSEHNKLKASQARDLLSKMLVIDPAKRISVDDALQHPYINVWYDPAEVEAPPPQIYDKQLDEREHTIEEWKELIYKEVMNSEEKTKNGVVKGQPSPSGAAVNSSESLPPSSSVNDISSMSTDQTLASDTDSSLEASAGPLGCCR
Protein kinase C delta type, sequence (Q05655 whole entry): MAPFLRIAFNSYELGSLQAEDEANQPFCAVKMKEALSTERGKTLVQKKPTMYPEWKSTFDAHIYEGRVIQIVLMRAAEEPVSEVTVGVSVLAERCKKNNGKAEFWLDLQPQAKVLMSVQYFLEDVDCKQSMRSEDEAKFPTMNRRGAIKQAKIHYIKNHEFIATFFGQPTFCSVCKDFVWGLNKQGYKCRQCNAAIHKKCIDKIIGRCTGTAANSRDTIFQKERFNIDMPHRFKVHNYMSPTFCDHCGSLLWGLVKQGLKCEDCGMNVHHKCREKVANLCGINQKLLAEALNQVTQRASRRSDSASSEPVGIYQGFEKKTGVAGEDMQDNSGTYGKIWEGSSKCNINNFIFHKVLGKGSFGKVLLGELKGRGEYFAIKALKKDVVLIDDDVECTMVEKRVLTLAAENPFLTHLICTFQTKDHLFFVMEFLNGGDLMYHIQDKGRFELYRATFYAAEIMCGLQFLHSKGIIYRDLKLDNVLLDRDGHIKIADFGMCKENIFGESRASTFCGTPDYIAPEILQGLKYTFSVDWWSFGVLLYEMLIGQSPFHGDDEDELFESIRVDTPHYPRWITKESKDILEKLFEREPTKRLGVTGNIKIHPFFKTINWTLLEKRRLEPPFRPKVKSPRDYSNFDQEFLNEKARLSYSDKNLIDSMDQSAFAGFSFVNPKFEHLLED
Serine/threonine-protein kinase N1, sequence (Q16512 whole entry): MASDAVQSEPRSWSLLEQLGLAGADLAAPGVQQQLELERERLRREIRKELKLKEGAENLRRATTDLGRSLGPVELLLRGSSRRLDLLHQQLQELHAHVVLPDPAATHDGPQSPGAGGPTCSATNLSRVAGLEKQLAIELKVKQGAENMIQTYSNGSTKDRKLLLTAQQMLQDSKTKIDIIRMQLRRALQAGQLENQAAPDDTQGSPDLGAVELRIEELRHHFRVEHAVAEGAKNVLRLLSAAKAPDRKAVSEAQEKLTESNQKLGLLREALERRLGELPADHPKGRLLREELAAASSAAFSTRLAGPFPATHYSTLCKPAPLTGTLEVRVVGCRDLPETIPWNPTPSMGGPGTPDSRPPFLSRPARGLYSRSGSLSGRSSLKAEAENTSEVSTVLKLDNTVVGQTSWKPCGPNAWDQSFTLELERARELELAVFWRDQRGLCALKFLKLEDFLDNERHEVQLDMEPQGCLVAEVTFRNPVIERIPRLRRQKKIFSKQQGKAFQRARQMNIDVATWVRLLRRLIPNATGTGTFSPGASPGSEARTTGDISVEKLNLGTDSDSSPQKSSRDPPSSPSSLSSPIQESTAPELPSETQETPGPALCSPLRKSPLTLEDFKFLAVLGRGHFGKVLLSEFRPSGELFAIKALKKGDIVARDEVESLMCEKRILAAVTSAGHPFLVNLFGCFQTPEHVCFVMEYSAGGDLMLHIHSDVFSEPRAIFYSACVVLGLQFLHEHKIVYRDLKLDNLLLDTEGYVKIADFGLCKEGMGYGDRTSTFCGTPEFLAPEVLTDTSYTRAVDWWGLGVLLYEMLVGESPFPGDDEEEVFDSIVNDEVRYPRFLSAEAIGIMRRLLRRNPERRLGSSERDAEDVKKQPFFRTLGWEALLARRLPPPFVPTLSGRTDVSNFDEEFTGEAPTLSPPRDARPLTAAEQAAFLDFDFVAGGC
Macrophage-stimulating protein receptor, sequence (Q04912 25-304 limits assumed): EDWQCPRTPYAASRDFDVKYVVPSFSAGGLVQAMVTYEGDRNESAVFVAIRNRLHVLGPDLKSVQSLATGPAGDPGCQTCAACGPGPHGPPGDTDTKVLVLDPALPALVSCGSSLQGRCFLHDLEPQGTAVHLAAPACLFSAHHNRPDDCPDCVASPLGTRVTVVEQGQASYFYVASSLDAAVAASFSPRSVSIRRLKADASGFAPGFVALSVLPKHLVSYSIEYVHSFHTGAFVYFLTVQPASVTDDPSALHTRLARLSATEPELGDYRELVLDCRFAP
Macrophage-stimulating protein receptor, sequence (Q04912 310-1400 limits assumed): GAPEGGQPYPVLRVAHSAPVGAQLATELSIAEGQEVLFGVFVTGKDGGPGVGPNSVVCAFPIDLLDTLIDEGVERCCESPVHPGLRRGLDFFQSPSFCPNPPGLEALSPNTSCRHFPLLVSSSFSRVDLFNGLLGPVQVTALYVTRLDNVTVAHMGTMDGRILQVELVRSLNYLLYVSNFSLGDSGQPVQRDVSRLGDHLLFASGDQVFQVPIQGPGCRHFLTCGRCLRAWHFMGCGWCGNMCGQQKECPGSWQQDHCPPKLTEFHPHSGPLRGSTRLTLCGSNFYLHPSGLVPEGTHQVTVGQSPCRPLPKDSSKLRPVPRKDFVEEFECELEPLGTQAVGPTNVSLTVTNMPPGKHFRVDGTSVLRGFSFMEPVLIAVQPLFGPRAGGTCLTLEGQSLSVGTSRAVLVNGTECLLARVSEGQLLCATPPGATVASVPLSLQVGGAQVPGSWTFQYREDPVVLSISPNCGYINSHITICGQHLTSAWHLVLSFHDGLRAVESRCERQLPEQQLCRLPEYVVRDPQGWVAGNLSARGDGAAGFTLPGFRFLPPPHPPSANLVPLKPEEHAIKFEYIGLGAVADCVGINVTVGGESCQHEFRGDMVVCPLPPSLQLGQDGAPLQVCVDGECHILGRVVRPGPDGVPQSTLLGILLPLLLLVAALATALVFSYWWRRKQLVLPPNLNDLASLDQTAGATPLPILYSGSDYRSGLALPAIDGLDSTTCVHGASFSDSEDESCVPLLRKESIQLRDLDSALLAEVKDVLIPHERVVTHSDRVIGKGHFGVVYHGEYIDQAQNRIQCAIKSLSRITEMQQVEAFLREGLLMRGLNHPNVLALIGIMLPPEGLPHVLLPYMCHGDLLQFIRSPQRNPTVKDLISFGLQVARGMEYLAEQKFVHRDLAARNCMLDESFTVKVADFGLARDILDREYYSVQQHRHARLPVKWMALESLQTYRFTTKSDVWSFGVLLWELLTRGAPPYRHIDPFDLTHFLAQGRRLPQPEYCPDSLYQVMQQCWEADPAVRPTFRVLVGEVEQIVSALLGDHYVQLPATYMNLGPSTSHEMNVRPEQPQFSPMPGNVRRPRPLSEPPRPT

On to `CCS(=O)(=O)N1CC(CC#N)(n2cc(-c3ncnc4[nH]ccc34)cn2)C1` [BARICITINIB], for which the Kd (in assay [1]; at Heme oxygenase 2; in assay [2]; in assay [3]; in assay [4]; in assay [5]) was > 30 µM (inactive) throughout. Moreover, the values for the Kd in assay [6] and in assay [7] were 0.104 µM (active) and 1.07 µM (active), respectively.

Take `CNS(=O)(=O)Nc1nccc(Cc2c(C)c3ccc(Oc4ncccn4)cc3oc2=O)c1F` [AVUTOMETINIB]: the Kd (in assay [1]; on Heme oxygenase 2; in assay [2]; in assay [3]; in assay [4]; in assay [5]) was > 30 µM (inactive) each time. The Kd in assay [6] and in assay [7] was > 30 µM (inactive) each time.

Consider `COc1ccc(-c2ccc3c(N4CCOC[C@@H]4C)nc(N4CCOC[C@@H]4C)nc3n2)cc1CO` [AZD-8055], for which the Kd (in assay [1]; on Heme oxygenase 2; in assay [2]; in assay [3]; in assay [4]; in assay [5]) was > 30 µM (inactive) each time. Besides, the Kd in assay [6] and in assay [7] was > 30 µM (inactive) each time.

For the compound `O=C(O)[C@]1(Cc2cccc(Nc3nccs3)n2)CC[C@@H](Oc2cccc(Cl)c2F)CC1` [MK-5108], the equilibrium dissociation constant (Kd) (in general, a measure of binding affinity in units of concentration) is 2.47 µM (active) in assay [1]; > 30 µM (inactive) at Heme oxygenase 2; > 30 µM (inactive) in assay [2]; > 30 µM (inactive) in assay [3]; 3.08 µM (active) in assay [4]; > 30 µM (inactive) in assay [5]. Further, the Kd in assay [6] and in assay [7] was > 30 µM (inactive) in each case.

Turning to `Cc1c(F)cc(C(=O)NC2CC2)cc1-c1ccc(C(=O)NCC(C)(C)C)cn1` [LOSMAPIMOD], the Kd (in assay [1]; at Heme oxygenase 2; in assay [2]; in assay [3]; in assay [4]; in assay [5]) was > 30 µM (inactive) each time. The Kd in assay [6] and in assay [7] was > 30 µM (inactive) each time.

For the compound `COc1cc(CCc2cc(NC(=O)c3ccc(N4C[C@@H](C)N[C@@H](C)C4)cc3)n[nH]2)cc(OC)c1` [AZD-4547], the Kd (in assay [1]; on Heme oxygenase 2; in assay [2]; in assay [3]; in assay [4]; in assay [5]) was > 30 µM (inactive) in each case. The Kd in assay [6] and in assay [7] was > 30 µM (inactive) each time.

In the case of `C1=C/COCc2cc(ccc2OCCN2CCCC2)Nc2nccc(n2)-c2cccc(c2)COC/1` [PACRITINIB], the Kd (in assay [1]; at Heme oxygenase 2; in assay [2]; in assay [3]; in assay [4]; in assay [5]) was > 30 µM (inactive) throughout. Further, the Kd in assay [6] and in assay [7] was > 30 µM (inactive) in each case.

With `CN1CCC(COc2cnc(-c3cccc(Cn4nc(-c5cccc(C#N)c5)ccc4=O)c3)nc2)CC1` [TEPOTINIB], the Kd (in assay [1]; on Heme oxygenase 2; in assay [2]; in assay [3]; in assay [4]; in assay [5]) was > 30 µM (inactive) in each case. Further, the Kd in assay [6] and in assay [7] was > 30 µM (inactive) throughout.

For `COc1cc2nccc(Oc3ccc(NC(=O)Nc4cc(C)on4)c(Cl)c3)c2cc1OC` [TIVOZANIB], the Kd (in assay [1]; on Heme oxygenase 2; in assay [2]; in assay [3]; in assay [4]; in assay [5]) was > 30 µM (inactive) throughout. Besides, the Kd in assay [6] and in assay [7] was > 30 µM (inactive) throughout.

Take `C[C@@H](c1ccc2nccn2c1)n1nnc2ncc(-c3cnn(C)c3)nc21` [SAVOLITINIB]: the Kd (in assay [1]; at Heme oxygenase 2; in assay [2]; in assay [3]; in assay [4]; in assay [5]) was > 30 µM (inactive) each time. In addition, the Kd in assay [6] and in assay [7] was > 30 µM (inactive) in each case.

With `N[C@@H]1CCCN(c2c(/C=C3\SC(=O)NC3=O)cccc2-c2ccccc2)C1`, the Kd (in assay [1]; on Heme oxygenase 2; in assay [2]; in assay [3]; in assay [4]; in assay [5]) was > 30 µM (inactive) throughout. For the same compound, the Kd in assay [6] and in assay [7] was > 30 µM (inactive) each time.

With `Cc1cc([C@@H](C)Nc2ccccc2C(=O)O)c2nc(N3CCOCC3)cc(=O)n2c1` [AZD-6482], the Kd (in assay [1]; at Heme oxygenase 2; in assay [2]; in assay [3]; in assay [4]; in assay [5]) was > 30 µM (inactive) throughout. The Kd in assay [6] and in assay [7] was > 30 µM (inactive) each time.

With `CN1CCC(CNc2ccc3ncc(-c4cccc(OC(F)(F)F)c4)n3n2)CC1` [SGI-1776], the Kd (in assay [1]; on Heme oxygenase 2; in assay [2]; in assay [3]; in assay [4]; in assay [5]) was > 30 µM (inactive) in each case. The Kd in assay [6] was 35.4 µM (active); in assay [7], > 30 µM (inactive).

Turning to `CC(C)Nc1cc(-c2c[nH]c(C(=O)N[C@H](CO)c3cccc(Cl)c3)c2)c(Cl)cn1` [ULIXERTINIB], the Kd (in assay [1]; on Heme oxygenase 2; in assay [2]; in assay [3]; in assay [4]; in assay [5]) was > 30 µM (inactive) throughout. Further, the Kd in assay [6] and in assay [7] was > 30 µM (inactive) each time.

For the compound `O=c1sn(-c2cccc3ccccc23)c(=O)n1Cc1ccccc1` [TIDEGLUSIB], the Kd (in assay [1]; on Heme oxygenase 2; in assay [2]; in assay [3]; in assay [4]; in assay [5]) was > 30 µM (inactive) in each case. In addition, the Kd in assay [6] and in assay [7] was > 30 µM (inactive) in each case.

As to `CNC(=O)c1cc(Oc2ccc(NC(=O)Nc3ccc(Cl)c(C(F)(F)F)c3)c(F)c2)ccn1` [REGORAFENIB], the Kd (in assay [1]; on Heme oxygenase 2; in assay [2]; in assay [3]; in assay [4]; in assay [5]) was > 30 µM (inactive) in each case. The Kd in assay [6] and in assay [7] was > 30 µM (inactive) throughout.
